# Measurements as given in article PMC9293909 (Nature Communications, 2022).
# Where “and” joins values, the source holds several entries; their conditions need not be identical. Equal values may be shown once.
# Tests used:
# hA1R:Gob [1] = molecular target: T1, hA1R:Gob (Homo sapiens, UniProt P30542); experiment: cAMP inhibition in PTX-treated CHO-K1-hA1R cells with PTX-insensitive Gob; settings: for cAMP accumulation, PTX-insensitive Gob (Fig. 2b): forskolin co-stimulation, individual repeats and mean; for Emax: read-out: Emax Gob; for Bias factor (Δ(τ/KA)) Gob: relative to adenosine, operational model
# Target sequence in this assay (P30542 whole entry): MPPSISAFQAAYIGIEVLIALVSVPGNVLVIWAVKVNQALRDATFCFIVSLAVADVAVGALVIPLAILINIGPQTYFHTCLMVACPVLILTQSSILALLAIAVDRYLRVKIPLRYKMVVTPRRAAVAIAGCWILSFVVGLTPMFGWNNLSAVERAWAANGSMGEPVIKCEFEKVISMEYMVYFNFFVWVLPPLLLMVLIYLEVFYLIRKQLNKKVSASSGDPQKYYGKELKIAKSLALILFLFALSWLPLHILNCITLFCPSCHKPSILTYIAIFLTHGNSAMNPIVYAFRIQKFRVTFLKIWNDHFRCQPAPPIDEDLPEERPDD
# Target sequence in this assay (P09471 2-354 isoform P09471-2 C351I partner limits assumed): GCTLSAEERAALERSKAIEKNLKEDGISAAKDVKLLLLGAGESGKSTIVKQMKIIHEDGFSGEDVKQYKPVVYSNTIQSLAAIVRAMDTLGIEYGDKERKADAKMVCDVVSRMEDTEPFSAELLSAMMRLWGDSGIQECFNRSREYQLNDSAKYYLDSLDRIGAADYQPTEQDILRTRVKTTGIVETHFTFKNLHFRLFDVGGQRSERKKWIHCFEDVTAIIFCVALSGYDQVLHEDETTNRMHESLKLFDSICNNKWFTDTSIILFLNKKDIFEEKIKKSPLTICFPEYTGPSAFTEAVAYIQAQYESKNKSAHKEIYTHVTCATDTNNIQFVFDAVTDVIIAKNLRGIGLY
# Method: Cells were then incubated for 24 h before addition of 100 ng/ml PTX, to inhibit activity of endogenous Gαi/o, and then incubated for a further 16-18 h. Transfected cells were then assayed as per cAMP inhibition experiments, but co-stimulated with agonist and 100 nM forskolin.
# All in vitro cell signalling assay data was analysed using Prism 8.4 (Graphpad software, San Diego, CA), with all concentration-response curves being fitted using a 3 parameter logistic equation to calculate response range and IC50. All cAMP data was normalised to a forskolin concentration-response curve ran in parallel to each assay.
# hA1R:Gob [2] = molecular target: T1, hA1R:Gob; experiment: TRUPATH G protein dissociation BRET assay, Gob; assay type: cell-based; set-up: cDNA resource centre (pcDNA3.1-A1R); settings: for activation of Gob vs Goa: TRUPATH assay; for EC50: Fig2h
# Method: Cells were plated in a density of 1,500,000 cells/well in a 6-well plate and grown in DMEM /F-12 GlutaMAX™ media (Thermo Fisher Scientific, UK) supplemented with 10% FBS (Sigma, UK) and 1% AA (Sigma, UK). After being grown overnight, cells in each well were transfected using polyethylenimine 25 kDa (PEI, Polysciences Inc., Germany) at a 6:1 ratio of PEI to DNA, diluted in 150 mM NaCl. […] Gɑ (either Goa-RLuc8, or Gob-RLuc8), Gβ3 and Gγ8-GFP2 constructs were purchased as part of the TRUPATH sensor kit from Addgene, pcDNA3.1-A1R was obtained from cDNA resource centre, and pcDNA3.1 (-) zeo was purchased from Invitrogen. After 24 h, cells were trypsinised and re-seeded onto poly-L-lysine (PLL)-coated white 96-well plates (Greiner, UK) at the density of 50,000 cells/well in a complete DMEM/F-12 medium. After grown overnight, the culture media was discarded and replaced with 80 μl assay buffer (1× Hank’s balanced salt solution (HBSS) with calcium, supplemented with 20 mM HEPES and 0.1% BSA at pH 7.4). The assay was started by adding 10 μl of coelenterazine 400a (Nanolight technology, USA) to a final concentration of 5 μM. The plates were then incubated in the dark for 5 min, prior to the addition of 10 μl compounds (in a range of 0.01 nM – 1 µM). In order to investigate the effect of interfering peptides on Goa and Gob activation, cells were transfected with the TRUPATH constructs for Goa and Gob with the A1R as described above. However, the vector was replaced by either interfering or scrambled peptides, as appropriate, with increasing concentration: 0, 100, and 400 ng and was complemented by pcDNA3.1(-) up to 400 ng. […] BRET signal was recorded for 30 min on a Mithras LB940 plate reader allowing sequential integration of signal detected from GFP2 and Rluc8.
# Target sequence in this assay (P30542 whole entry): as the sequence (P30542 whole entry) above
# Target sequence in this assay (P09471 2-354 isoform P09471-2 partner limits assumed): as the sequence (P09471 2-354 isoform P09471-2 C351I partner limits assumed) above, with I350C counted along it
# Target sequence in this assay (P16520 whole entry partner): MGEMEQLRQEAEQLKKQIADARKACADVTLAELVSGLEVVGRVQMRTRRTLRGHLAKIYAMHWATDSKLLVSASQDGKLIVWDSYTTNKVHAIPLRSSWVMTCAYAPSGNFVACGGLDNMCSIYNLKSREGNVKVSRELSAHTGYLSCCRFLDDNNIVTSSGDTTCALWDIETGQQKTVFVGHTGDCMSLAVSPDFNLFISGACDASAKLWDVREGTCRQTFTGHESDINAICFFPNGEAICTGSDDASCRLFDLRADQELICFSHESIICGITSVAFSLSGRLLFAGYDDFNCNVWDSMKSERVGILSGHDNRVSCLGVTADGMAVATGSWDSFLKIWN
# Target sequence in this assay (Q9UK08 1-67 partner limits assumed): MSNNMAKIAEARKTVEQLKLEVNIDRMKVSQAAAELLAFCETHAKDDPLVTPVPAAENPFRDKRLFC
# hA3R [3] = molecular target: T2, hA3R (Homo sapiens, UniProt P0DMS8); experiment: Binding affinity at hA3R (Supplementary Table 1); settings: tracer not given (footnote d); read-out: pKi hA3R (converted)
# T2 construct: expressed in transfected cells; host or cells: CHO-K1
# T2 sequence (P0DMS8 1-318): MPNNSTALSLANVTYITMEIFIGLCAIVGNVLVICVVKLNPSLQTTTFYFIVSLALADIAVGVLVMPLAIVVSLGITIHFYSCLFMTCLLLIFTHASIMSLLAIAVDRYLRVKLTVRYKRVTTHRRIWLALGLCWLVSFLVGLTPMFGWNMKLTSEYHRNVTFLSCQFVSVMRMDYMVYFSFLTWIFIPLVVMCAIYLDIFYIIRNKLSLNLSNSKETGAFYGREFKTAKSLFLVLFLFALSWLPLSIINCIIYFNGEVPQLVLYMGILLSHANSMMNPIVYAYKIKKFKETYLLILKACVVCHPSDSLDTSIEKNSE
# rA3R = molecular target: T3, rA3R (Rattus norvegicus, UniProt P28647); experiment: cAMP inhibition at rA3R (Flp-In-CHO); assay type: cell-based; settings: for Range rA3R: range of response as percentage of response to 10 μM forskolin
# T3 construct: expressed in transfected cells; host or cells: Flp-In-CHO (ThermoFisher R75807), pcDNA5/FRT
# T3 sequence (P28647 1-320): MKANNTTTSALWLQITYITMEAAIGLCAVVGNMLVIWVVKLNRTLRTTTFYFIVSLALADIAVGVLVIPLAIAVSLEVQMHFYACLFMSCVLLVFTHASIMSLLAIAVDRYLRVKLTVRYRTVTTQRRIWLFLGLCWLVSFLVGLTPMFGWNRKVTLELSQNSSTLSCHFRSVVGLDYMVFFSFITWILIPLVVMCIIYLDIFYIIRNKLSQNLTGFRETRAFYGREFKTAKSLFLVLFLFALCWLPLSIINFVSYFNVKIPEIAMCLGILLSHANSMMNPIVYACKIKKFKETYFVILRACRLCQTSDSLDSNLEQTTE
# Excerpt: Cell lines were maintained using standard subculturing routines as guided by the European Collection of Cell Culture (ECACC) and checked annually for mycoplasma infection using an EZ-PCR mycoplasma test kit from Biological Industries (Kibbutz Beit-Haemek, Israel). To investigate the signalling properties of the rat A3R (rA3R) and mutants of the human A1R (hA1R), stable cell lines were generated using Flp-In-CHO cells (ThermoFisher - R75807). Untagged hA1R from sigNanoLuciferase (Nluc)-A1R in pcDNA3.1+ and untagged rA3R from sigNluc-A3R in pcDNA3.1 + (both gifted by Dr Steve Briddon (University of Nottingham)) were cloned into the pcDNA5/FRT expression vector (Thermo Fisher Scientific). Mutations within the hA1R were made using the QuikChange Lightening Site-Directed Mutagenesis Kit (Agilent Technologies) in accordance with the manufacturer’s instructions. Constructs for generating Goa/b interfering and scrambled peptides were generated by PCR and cloned into the BamHI/HindIII site of pcDNA3.1- as described in Gilchrist et al.[60],. Prior to the initiator codon a Kozak sequence was included for enhanced translation. The peptide sequences used were: for Goa […], for Gob […], and for the scrambled peptide […] was used. Constructs were sequenced to confirm fidelity. Flp-In-CHO cells were generated through co-transfection of the cell line with pcDNA5/FRT expression vector (Thermo Fisher Scientific) containing the WT or mutant hA1R, or rA3R, and the Flp recombinase expressing plasmid, pOG44 (Thermo Fisher Scientific), in accordance with the manufacturer’s instructions. […] CHO cell lines expressing ARs of interest (including mutants of the hA1R) were routinely cultured in Ham’s F-12 nutrient mix supplemented with 10% foetal bovine serum (FBS), at 37 °C with 5% CO2, in a humidified atmosphere.
# hA3R [4] = molecular target: T2, hA3R; experiment: cAMP inhibition at hA3R; assay type: cell-based; settings: for Range hA3R: range of response as percentage of response to 10 μM forskolin
# Method: CHO cell lines expressing ARs of interest (including mutants of the hA1R) were routinely cultured in Ham’s F-12 nutrient mix supplemented with 10% foetal bovine serum (FBS), at 37 °C with 5% CO2, in a humidified atmosphere.
EC50 (hA1R:Gob [1]) [nM],"EC50 (hA1R:Gob [2]; individual replicate, read-out: TRUPATH Gob potency (converted))","EC50 (hA1R:Gob [2]; n 8, read-out: TRUPATH Gob potency, Average (converted)) [nM]","IC50 (rA3R; half-maximal response, cAMP inhibition, read-out: pIC50 rA3R (converted)) [nM]","IC50 (hA3R [4]; half-maximal response, cAMP inhibition, read-out: pIC50 hA3R (converted)) [nM]",SMILES,"cAMP accumulation, PTX-insensitive Gob (Fig. 2b) (hA1R:Gob [1]; Log[Agonist] -6)","cAMP accumulation, PTX-insensitive Gob (Fig. 2b) (hA1R:Gob [1]; Log[Agonist] -6.5)","cAMP accumulation, PTX-insensitive Gob (Fig. 2b) (hA1R:Gob [1]; Log[Agonist] -7)","cAMP accumulation, PTX-insensitive Gob (Fig. 2b) (hA1R:Gob [1]; Log[Agonist] -7.5)","cAMP accumulation, PTX-insensitive Gob (Fig. 2b) (hA1R:Gob [1]; Log[Agonist] -8)","cAMP accumulation, PTX-insensitive Gob (Fig. 2b) (hA1R:Gob [1]; Log[Agonist] -8.5)","cAMP accumulation, PTX-insensitive Gob (Fig. 2b) (hA1R:Gob [1]; Log[Agonist] -9)","cAMP accumulation, PTX-insensitive Gob (Fig. 2b) (hA1R:Gob [1]; Log[Agonist] -10)",Emax (hA1R:Gob [1]) [%],Bias factor (Δ(τ/KA)) Gob (hA1R:Gob [1]),activation of Gob vs Goa (hA1R:Gob [2]),Ki (hA3R [3]) [nM],Range rA3R (rA3R) [%],"pIC50 hA3R (hA3R [4]; half-maximal response, cAMP inhibition)",Range hA3R (hA3R [4])
,,,,,"OC[C@H]1O[C@@H](n2cnc3c(NC4CCCC4)ncnc32)[C@H](O)[C@@H]1O [CPA, N^6-Cyclopentyladenosine]",-30.7 and -34.041 and -25.068 and -30.1931 and -28.2815 and -42.9468 and -23.6463,-29.1 and -23.2817 and -30.2927 and -27.2185 and -29.2939 and -35.2937 and -29.3947,-11.3 and -6.131 and -4.497 and -15.3895 and -20.4135 and -9.305,-3.4 and 0.1928 and -6.183 and -4.138 and -8.294 and -3.294,0.0 and 0 (6×),0.0 and 0 (6×),0 (6×) and 0.0,0 (6×) and 0.0,-31.8,2.263,equipotent activation of both Goa and Gob,> 100000,68.79 ± 3.67,N.R.,N.R.
603,132 nM and 51.3 nM and 38 nM and 46.8 nM and 61.7 nM and 50.1 nM and 52.5 nM,57.5,38.9,24.5,"OC[C@H]1O[C@@H](n2cnc3c(N[C@@H]4CCC[C@H]4O)ncnc32)[C@H](O)[C@@H]1O [HOCPA, (2 R,3 R,4 S,5 R)−2-(6-{[(1 R,2 R)−2-hydroxycyclopentyl]amino}−9H-purin-9-yl)−5-(hydroxymethyl)oxolane-3,4-diol]",,,,,,,,,-35.5,11.4176,equipotent activation of both Goa and Gob,589,68.79 ± 3.70,,45.0 ± 2.1%
